From publication PMC6587462 (Journal of Clinical Pharmacology, 2018)
Where “and” joins values, the source holds several entries; their conditions need not be identical. Identical values can stand only once. Entries after “also recorded” stand apart in the source; their conditions may differ. Like-named read-outs stand apart in the source and are kept apart here.

Assays:
[1] = target: T1, P‐glycoprotein (P‐gp) efflux transporter (Homo sapiens, UniProt P08183); settings: in vitro, cited from earlier work
T1 sequence (P08183 whole entry): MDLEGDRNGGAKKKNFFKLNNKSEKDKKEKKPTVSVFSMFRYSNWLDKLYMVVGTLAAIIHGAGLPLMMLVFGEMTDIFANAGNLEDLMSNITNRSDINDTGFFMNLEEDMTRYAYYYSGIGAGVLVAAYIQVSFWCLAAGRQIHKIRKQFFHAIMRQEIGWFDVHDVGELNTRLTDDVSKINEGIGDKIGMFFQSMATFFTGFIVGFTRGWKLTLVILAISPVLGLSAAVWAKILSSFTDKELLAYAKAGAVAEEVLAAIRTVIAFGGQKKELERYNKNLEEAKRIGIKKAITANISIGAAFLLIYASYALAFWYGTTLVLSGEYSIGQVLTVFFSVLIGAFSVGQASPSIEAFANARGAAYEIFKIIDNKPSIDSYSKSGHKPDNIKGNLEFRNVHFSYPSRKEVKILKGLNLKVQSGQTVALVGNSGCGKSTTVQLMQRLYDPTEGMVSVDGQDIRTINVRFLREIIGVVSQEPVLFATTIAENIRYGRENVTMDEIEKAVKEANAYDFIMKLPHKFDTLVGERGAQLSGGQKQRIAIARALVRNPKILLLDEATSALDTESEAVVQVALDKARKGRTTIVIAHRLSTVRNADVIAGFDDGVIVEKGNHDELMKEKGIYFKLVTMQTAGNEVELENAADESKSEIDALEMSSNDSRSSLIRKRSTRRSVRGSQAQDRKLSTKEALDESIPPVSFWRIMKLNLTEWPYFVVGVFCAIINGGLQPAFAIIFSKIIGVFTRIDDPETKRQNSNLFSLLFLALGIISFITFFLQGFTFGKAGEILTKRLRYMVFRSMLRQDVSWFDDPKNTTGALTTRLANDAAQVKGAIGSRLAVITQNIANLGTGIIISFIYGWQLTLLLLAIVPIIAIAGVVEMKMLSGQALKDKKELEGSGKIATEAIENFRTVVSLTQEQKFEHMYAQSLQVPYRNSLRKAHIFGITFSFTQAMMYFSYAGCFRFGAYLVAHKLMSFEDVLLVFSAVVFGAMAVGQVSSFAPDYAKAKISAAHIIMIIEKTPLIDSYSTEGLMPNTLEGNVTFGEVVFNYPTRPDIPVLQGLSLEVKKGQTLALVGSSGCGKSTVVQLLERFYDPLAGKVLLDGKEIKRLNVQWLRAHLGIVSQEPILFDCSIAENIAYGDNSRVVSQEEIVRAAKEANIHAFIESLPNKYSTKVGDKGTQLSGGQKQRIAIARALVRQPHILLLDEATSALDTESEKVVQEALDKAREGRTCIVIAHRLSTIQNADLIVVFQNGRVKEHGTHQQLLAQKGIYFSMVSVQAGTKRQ

[2] = design: species or system human; settings: estimated from t1/2
[3] = Study 11 population PK/pharmacodynamic study in cancer patients; assay type: in vivo, human; settings: population PK modeling in patients
[4] = target: T1, P‐glycoprotein (P‐gp) efflux transporter; test: In vitro interaction with P-gp; assay type: in vitro ADME
plasma proteins = test: Binding to plasma proteins; assay type: in vitro ADME
[5] = Binding to plasma proteins; assay type: in vitro ADME; settings: human, plasma
[6] = Study 12 PK/safety and DDI study in cancer patients; assay type: in vivo; settings: human, plasma, oral
[7] = Apical-to-basolateral permeability in Caco-2 monolayer; assay type: in vitro ADME; settings: human
[8] = cited from earlier work
[9] = Study 5 bioequivalence study, PK after single oral NEPA; assay type: in vivo, human
[10] = netupitant; cited from earlier work
[11] = Study 2 ADME study of [14C]-netupitant; assay type: in vivo, human; settings: estimated at day 29 after administration
[12] = Absolute / oral bioavailability; assay type: in vivo; settings: human, plasma, oral
[13] = cited from earlier work; remark: listed apart in the source
NG108‐15 cells = settings: netupitant and palonosetron combined; cited from earlier work
[14] = Study 4 pilot bioequivalence study, PK after single oral NEPA; assay type: in vivo; settings: human, plasma
[15] = Study 10 comparative bioavailability study; assay type: in vivo, human
[16] = Octanol-water partition coefficient; assay type: physicochemical
clinical = settings: human, in vivo, po
NK1 receptor [17] = target: NK1 receptor (Homo sapiens, UniProt P25103); settings: NG108-15 cells; netupitant and palonosetron combined; cited from earlier work
Sequence of NK1 receptor (Homo sapiens, UniProt P25103) (P25103 whole entry, species assumed): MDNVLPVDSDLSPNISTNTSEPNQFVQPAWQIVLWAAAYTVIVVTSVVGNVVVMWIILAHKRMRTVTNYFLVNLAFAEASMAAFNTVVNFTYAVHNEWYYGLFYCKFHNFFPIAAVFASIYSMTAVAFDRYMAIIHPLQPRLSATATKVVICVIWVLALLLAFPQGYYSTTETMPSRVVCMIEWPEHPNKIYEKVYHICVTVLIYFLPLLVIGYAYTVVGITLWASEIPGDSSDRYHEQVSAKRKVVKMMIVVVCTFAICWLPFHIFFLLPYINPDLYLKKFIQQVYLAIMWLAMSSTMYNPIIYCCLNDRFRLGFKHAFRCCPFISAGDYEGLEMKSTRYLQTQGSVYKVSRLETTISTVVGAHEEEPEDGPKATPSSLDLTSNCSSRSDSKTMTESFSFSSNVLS

[18] = cited from earlier work; for CL/F / Cmax / Tmax / Vz/F / t1/2: Study 8, healthy volunteers (22), NEPA FDC, mean (CV%)
[19] = Oral NEPA PK in cancer patients, summary across studies; assay type: in vivo; settings: human, plasma
[20] = Study 11 population PK, patients (117), NEPA FDC, cited from earlier work
CYP3A4 = CYP3A4 (Homo sapiens, UniProt P08684); settings: in vitro; cited from earlier work
Sequence of CYP3A4 (P08684 whole entry): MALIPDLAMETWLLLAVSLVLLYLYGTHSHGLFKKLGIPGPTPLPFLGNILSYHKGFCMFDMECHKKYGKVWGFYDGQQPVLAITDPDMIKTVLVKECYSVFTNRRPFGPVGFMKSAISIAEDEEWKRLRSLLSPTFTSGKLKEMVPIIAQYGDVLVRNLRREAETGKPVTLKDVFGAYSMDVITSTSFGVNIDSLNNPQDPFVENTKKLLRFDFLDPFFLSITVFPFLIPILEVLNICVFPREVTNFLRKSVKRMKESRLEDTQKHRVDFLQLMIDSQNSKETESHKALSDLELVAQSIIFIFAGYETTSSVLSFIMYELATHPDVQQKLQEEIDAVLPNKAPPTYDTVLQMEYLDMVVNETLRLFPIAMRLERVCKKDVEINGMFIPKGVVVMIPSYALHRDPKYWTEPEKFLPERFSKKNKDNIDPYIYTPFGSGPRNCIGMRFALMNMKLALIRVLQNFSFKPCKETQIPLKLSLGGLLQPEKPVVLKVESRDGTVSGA

[21] = Biopharmaceutics Classification System class and solubility in water; assay type: physicochemical
[22] = Study 9 replicate crossover bioequivalence study; assay type: in vivo, human
NK1 receptor [23] = settings: PET; at 6 hours after single 300-mg oral netupitant; cited from earlier work
[24] = absorption, binding, metabolic, or excretory level; cited from earlier work
CYP2D6 = CYP2D6 (Homo sapiens, UniProt P10635); test: In vitro CYP2D6 inhibition; assay type: in vitro ADME
Sequence of CYP2D6 (P10635 whole entry): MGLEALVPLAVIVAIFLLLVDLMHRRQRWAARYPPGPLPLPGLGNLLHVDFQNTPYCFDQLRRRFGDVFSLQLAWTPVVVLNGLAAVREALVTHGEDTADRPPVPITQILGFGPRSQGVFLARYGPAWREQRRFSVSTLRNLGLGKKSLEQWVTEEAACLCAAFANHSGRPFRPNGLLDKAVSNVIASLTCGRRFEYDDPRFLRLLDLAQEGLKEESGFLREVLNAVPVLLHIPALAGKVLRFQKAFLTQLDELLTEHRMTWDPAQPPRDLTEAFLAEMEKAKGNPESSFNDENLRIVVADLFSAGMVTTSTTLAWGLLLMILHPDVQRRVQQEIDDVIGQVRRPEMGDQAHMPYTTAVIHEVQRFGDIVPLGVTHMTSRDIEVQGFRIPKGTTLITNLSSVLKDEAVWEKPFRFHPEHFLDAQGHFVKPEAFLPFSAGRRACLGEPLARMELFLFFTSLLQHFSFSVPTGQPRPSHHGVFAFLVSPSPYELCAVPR

[25] = single-dose NEPA with 400-mg ketoconazole for 12 days vs alone
[26] = single-dose NEPA with daily 600-mg rifampicin for 17 days

fraction from previous NEPA administration eliminated at next dose ([2]; chemotherapy every 2 weeks): approximately 95%
fraction from previous NEPA administration eliminated at next dose ([2]; chemotherapy every 3 weeks): approximately 99%
absorption lag time [3]: 0.77 h
absorption rate constant [3]: 0.956 h⁻¹
Ki [4]: 3 µM
fold by which unbound peak plasma concentration is lower than P-gp Ki ([4]; human, not told, oral): approximately 5 fold
binding to plasma proteins (plasma proteins): > 99%
fraction unbound [5]: < 0.01
Papp [7]: > 20 ×10⁻⁶ cm/s
CL/F ([9]; Study 5, healthy volunteers (47), single oral NEPA FDC, mean (CV%)): 26.3 (47.4) L/h
Cmax ([9]; human, plasma, po): 434 ng/mL
Tmax ([9]; human, plasma, po): 5.07 h
Vd/F ([9]; human, plasma, po): 3310 L
half-life ([9]; human, plasma, po): 95.6 h
fraction of netupitant eliminated [11]: approximately 90%
bioavailability [12]: 63 to 87%
Tmax [14]: 5.38 h
Vd/F [14]: 2780 L
half-life [14]: 89.2 h
CL/F ([15]; Study 10, healthy volunteers (24), NEPA FDC standard dissolution, mean (CV%)): 25.7 (40.9) L/h
Cmax ([15]; human, plasma, oral): 374 ng/mL
Tmax ([15]; human, plasma, oral): 5.15 h
Vd/F ([15]; human, plasma, oral): 3160 L
half-life ([15]; human, plasma, oral): 89.9 h
CL/F (Healthy volunteers, Min-Max of study means, single oral NEPA): 16.3 to 26.3 L/h
time after dosing until which plasma concentrations were quantifiable (after NEPA, M2 below LLOQ thereafter, others up to last observation time): 10 days
plasma concentration as fraction of mean Cmax (at 3 hours after oral NEPA): approximately 80%
peak plasma concentration of unbound netupitant (human, in vivo): 0.65 µM
logP [16]: 5.1
Cmax (clinical): 374 to 650 ng/mL
Tmax (clinical): 4.36 to 5.66 h
Vd/F (clinical): 1980 to 3310 L
half-life (clinical): 75.3 to 101 h
Cmax [19]: 477 to 567 ng/mL
Tmax [19]: 4.02 to 4.56 h
Vd/F [19]: 1660 to 2260 L
Biopharmaceutics Classification System class [21]: 2
CL/F ([22]; Study 9, healthy volunteers (82), NEPA FDC commercial product, mean (CV%)): 26.2 (51.2) L/h
Cmax ([22]; human, plasma, oral): 454 ng/mL
Tmax ([22]; human, plasma, oral): 5.01 h
Vd/F ([22]; human, plasma, oral): 2740 L
half-life ([22]; human, plasma, oral): 76.6 h
inhibition or induction of CYP2D6 (CYP2D6): not an inhibitor or inducer
Structure (SMILES): Cc1ccccc1-c1cc(N2CCN(C)CC2)ncc1N(C)C(=O)C(C)(C)c1cc(C(F)(F)F)cc(C(F)(F)F)c1 [netupitant]
substrate of P-gp (MDR1/P-gp) efflux transporter [1]: not a P‐gp substrate; also recorded: not substrates
inhibitor of P-gp efflux transporter ([1]; parent drugs): P‐gp inhibitor
Vd/F [6]: 1860 to 2260 L
fold increase of AUCinf [8, 25]: 2.4 fold
fold increase of Cmax [8, 25]: 1.2 fold
fold decrease of AUCinf [8, 26]: 4.9 fold
fold decrease of Cmax [8, 26]: 2.2 fold
solubility in water [10]: very slightly soluble
mass balance recovery of total radioactivity in urine ([13]; [14C]-netupitant and its metabolites M1, M2, and M3): 4.75%
administered dose excreted through the feces (hepatic/biliary route) ([13]; netupitant and its metabolites): 87% and 86.5%
combined effect on inhibition of substance P-mediated response (NG108‐15 cells): synergistic effects
combined effect on triggering NK1 receptor internalization (NK1 receptor [17]): additive effects
CL/F ([18]; fasted): 20.5 (52.7) L/h
Cmax ([18]; fasted): 596.4 (39.1) ng/mL
Tmax ([18]; fasted): 5.14 (17.3) h
Vz/F ([18]; fasted): 2851 (57.3) L
t1/2 ([18]; fasted): 101.2 (52.2) h
CL/F ([18]; fed): 16.3 (23.1) L/h
Cmax ([18]; fed): 649.8 (21.8) ng/mL
Tmax ([18]; fed): 5.66 (17.1) h
Vz/F ([18]; fed): 1984 (40.1) L
t1/2 ([18]; fed): 86.3 (46.2) h
AUCinf and Cmax under fed (high-fat breakfast) vs fasting conditions ([18]; open, randomized, 2-way crossover study in healthy volunteers): similar
Cmax ([20]; mean (CV%)): 567.3 (38.2) ng/mL
Tmax ([20]; mean (CV%)): 4.02 (59.1) h
t1/2 ([20]; mean (CV%)): 92.8 (32.8) h
CL/F ([20]; value (%RSE)): 20.5 (%RSE 16.3) L/h
CYP3A4 inhibition (CYP3A4): moderate inhibitor
NK1 receptor occupancy in the striatum (NK1 receptor [23]): 92.5%
PK interaction between netupitant and palonosetron [24]: no relevant PK interactions
